r = 2'-OH (RNA)
How the values were obtained:
wild-type EGFR gene = test: RT-PCR analysis of wild-type EGFR expression in PC3 cells after siRNA electroporation; assay type: cell-based, human; conditions: siRNA 5 μM by electroporation, 24 hours, PCR and electrophoresis
Protocol: The human non-small cell lung cancer-derived cell line PC3 cells were cultured at 37° C. under 5% CO2 using an EMEM culture solution (Wako Pure Chemical Industries, Ltd.) containing 10% fetal bovine serum (FBS; Invitrogen Corp.).
The cells cultured in the preceding paragraph (1) were dispersed by trypsin digestion, then collected by centrifugation (120 G, 5 min.) and suspended at a concentration of approximately 1×10^6 cells in 100 μL of an electroporation buffer (Amaxa Cell Line Nucleofector Solution V, Amaxa Biosystems GmbH) containing each EGFR-siRNA (final concentration: 5 μM). These 3 samples for electroporation thus prepared were subjected to nucleic acid introduction (one of the samples was a control experimental group without nucleic acid introduction) by electroporation (program: U-005, gene introduction system Nucleofector, Amaxa Biosystems GmbH) according to the protocol included therein.
The cells of these 3 groups were separately cultured in a 6-well culture plate using the culture solution of the paragraph (1) and collected 24 hours later. […]
The cDNAs obtained in the preceding paragraph (3) were analyzed by PCR using AmpliTaq Gold DNA Polymerase (Applied Biosystems, Inc.) and primers specifically amplifying the EGFR mutation sites and their neighboring sequences. […] Then, the PCR amplification products were analyzed by electrophoresis (7% polyacrylamide gel, 100 mA, 1 hr.).

PC3 cells [1] = test: Cell growth and survival activity evaluation (1), MTS/NADH; assay type: cell-based, human; conditions: PC3 cells after siRNA electroporation; compared with No siRNA and siControl
Protocol: (§1) PC3 cells were cultured in the same way as in “Example 2(1)”.
(§2) Electroporation was performed in the same way as in “Example 2(2)”.
(§3) The cells were cultured (cell density: approximately 3×10^4 cells/well) in a 96-well culture plate using the culture solution of the paragraph (1). One day and 4 days later, the cells were subjected to each evaluation experiment. si747/49-3D19 was also subjected to similar evaluation experiments, together with a control, 2 days and 6 days after the cell culture.
In order to evaluate the cell growth and survival activity of PC3 cells after the introduction of si747/49-3D19, MTS reductive effect induced by nicotinamide adenine dinucleotide (NADH) contained in live cells was measured using CellTiter 96 AQueous Non-Radioactive Cell Proliferation Assay (Promega Corp.). The experimental procedures followed the protocol included in the product. Absorbance was measured using BenchMark Plus (Bio-Rad Laboratories, Inc.). The negative controls used were the same two controls (No siRNA and siControl) as in the cell growth ability assay.

[2] = system: PC3 cells subcutaneously transplanted to nude mice; test: Mouse model with subcutaneous tumor by xenoectopic transplantation of PC3 cells, intratumoral EGFR-siRNA; assay type: in vivo, nude mouse (BALB/cAJcl-nu/nu); conditions: single 1.0 mg/kg dose directly to the tumor with atelocollagen, vs atelocollagen only and siControl; for wet weight of the tumor: 3rd week; for tumor volume (swelling of the subcutaneous tumor): up to 3rd week
Protocol: PC3 cells were subcutaneously transplanted to nude mice to prepare mouse models with subcutaneous tumor. The mouse models were used to test tumor growth inhibitory effects by the administration of each EGFR-siRNA.
The cultured PC3 cells were dispersed by trypsin digestion, then collected by centrifugation (120 G, 5 min.), and resuspended in a serum- and antibiotic-free culture solution (RPMI-1640, Wako Pure Chemical Industries, Ltd.) to adjust the number of cells to 1×10^7 cells/mL. This cell suspension and BD Matrigel Basement Membrane Matrix (Becton, Dickinson and Company) were mixed in equal amounts to adjust the number of cells to 5×10^6 cells/mL. This suspension was subcutaneously administered at a dose of 100 μL (0.5×10^6 cells) to the right flank region of each immunodeficient model nude mouse (5 weeks old, BALB/cAJcl-nu/nu, CLEA Japan, Inc.).
The complexing procedures followed the protocol included therein. The final concentration of each EGFR-siRNA (si747/49-3D 19 or si747/49(A)-8D 19) was set to 0.1 mg/mL.
One week after PC3 cell transplantation (6 weeks old), tumor volume was calculated from tumor diameters. Three samples prepared above, i.e., the siRNA-free atelocollagen solution and 20 μg/200 μL solutions of siControl and each EGFR-siRNA were separately administered once at a dose of 1.0 mg/kg body weight directly to the tumor that reached approximately 50 mm^3. The tumor volume was calculated according to the following equation: Volume=(minor axis)^2×(major axis)×0.5
In the 3rd week after the administration of the siRNA, etc. (9 weeks old) (FIG. 25A, si747/49-3D19; FIG. 28A, si747/49(A)-8D19), the tumor volume was calculated according to the equation. In addition, the tumor was taken out of each mouse (FIG. 25B, si747/49-3D19; FIG. 28B, si747/49(A)-8D19), and its wet weight was measured.

PC3 cells [3] = test: Cytotoxicity evaluation, LDH released into culture solution; assay type: cell-based, human; conditions: PC3 cells after siRNA electroporation; compared with No siRNA and siControl
Protocol: as §1, §2, §3
In order to evaluate cytotoxicity to PC3 cells after the introduction of si747/49-3D19, the level of LDH released from the cells into a culture solution by cytotoxicity was measured using CytoTox 96 Non-Radioactive Cytotoxicity Assay (Promega Corp.). The experimental procedures followed the protocol included in the product. Absorbance was measured using BenchMark Plus (Bio-Rad Laboratories, Inc.). The negative controls used were the same two controls (No siRNA and siControl) as in the cell growth ability assay.

[4] = Test on adverse reaction: plasma bilirubin and alkaline phosphatase after intraperitoneal siRNA; assay type: in vivo; conditions: ICR mice, 3 days after administration, vs No siRNA and siControl
Protocol: Various siRNAs were intraperitoneally administered to ICR mice (male, 10 weeks old). […] These test samples were prepared in the same way as in Example 7 and intraperitoneally administered to mice.
3 days after administration, blood was collected from each mouse. The collected total blood was centrifuged (1200×g, 10 min.) to obtain plasma. Subsequently, total bilirubin, indirect bilirubin, and direct bilirubin levels in the plasma were measured using QuantiChrom™ Bilirubin Assay Kit (BioAssay Systems LLC). Also, alkaline phosphatase level was measured using LabAssay™ ALP (Wako Pure Chemical Industries, Ltd.). The experimental procedures followed the protocol included in each kit.

| Substance | expression of the wild-type EGFR gene (wild-type EGFR gene) | cell growth and survival activity (cell survival rate), NADH activity (PC3 cells [1]) | wet weight of the tumor [2] | tumor volume (swelling of the subcutaneous tumor) [2] | cytotoxicity (LDH released from the cells) (PC3 cells [3]) | alkaline phosphatase level in plasma [4] | direct bilirubin level in plasma [4] | indirect bilirubin level in plasma [4] | total bilirubin level in plasma [4] |
| --- | --- | --- | --- | --- | --- | --- | --- | --- | --- |
| si747/49(A)-8D19: siRNA against EGFR del(L747-E749)-A750P(A) mutant gene; ss SEQ ID NO 139, as SEQ ID NO 140, 3′ UU added (sense CUAUCAAGGAACCAACAUC; antisense GAUGUUGCUUCCUUGAUAG; RNA, 3' rUrU, backbone not given here) | without suppressing | significantly suppressed the growth rates of the cells or reduced their survival rates | significantly reduced | significantly suppress the swelling of the subcutaneous tumor |  |  |  |  |  |
| si747/49-3D19: siRNA against EGFR del(L747-E749)-A750P(G) mutant gene; ss SEQ ID NO 55, as SEQ ID NO 56, 3′ UU added (sense GUCGCUAUCAAGGAGCCAA; antisense UUGGCUCCUUGAUAGCGAC; RNA, 3' rUrU, backbone not given here; listed as Homo sapiens) | without suppressing | significantly suppressed the growth rates of the cells or reduced their survival rates | significantly reduced | significantly suppress the swelling of the subcutaneous tumor | does not induce cell death attributed to cytotoxicity | no significant change | no significant change | no significant change | no significant change |
